Measured values taken from ChEMBL document CHEMBL1817616, “Synthesis, characterization and biological evaluation of some 16β-azolyl-3β-amino-5α-androstane derivatives as potential anticancer agents” (Eur J Med Chem, 2011).

system: HeLa; experiment: Anticancer activity against human HeLa cells after 48 hrs by MTT assay; format: functional, cell-based; conditions: not given

Compound	IC50 [µM]
CC(=O)O[C@H]1[C@@H](n2cncn2)C[C@H]2[C@@H]3CC[C@H]4C[C@@H](N5CCCCC5)CC[C@]4(C)[C@H]3CC[C@@]21C	> 50
CCN(CC)[C@H]1CC[C@@]2(C)[C@@H](CC[C@@H]3[C@@H]2CC[C@@]2(C)[C@H]3C[C@H](n3ccnn3)[C@@H]2OC(C)=O)C1	> 50
COc1cccc2c1C(=O)c1c(O)c3c(c(O)c1C2=O)C[C@@](O)(C(=O)CO)C[C@@H]3O[C@H]1C[C@H](N)[C@H](O)[C@H](C)O1 [DOXORUBICIN]	0.23
CC(=O)O[C@H]1[C@@H](n2cnc3ccccc32)C[C@H]2[C@@H]3CC[C@H]4C[C@@H](N5CCCC5)CC[C@]4(C)[C@H]3CC[C@@]21C	> 50
CC(=O)O[C@H]1[C@@H](n2cnc3ccccc32)C[C@H]2[C@@H]3CC[C@H]4C[C@@H](N(C)c5ccccc5)CC[C@]4(C)[C@H]3CC[C@@]21C	4.51
CC(=O)O[C@H]1[C@@H](n2cncn2)C[C@H]2[C@@H]3CC[C@H]4C[C@@H](N(C)Cc5ccccc5)CC[C@]4(C)[C@H]3CC[C@@]21C	18.7
CC(=O)O[C@H]1[C@@H](n2cncn2)C[C@H]2[C@@H]3CC[C@H]4C[C@@H](N5CCCC5)CC[C@]4(C)[C@H]3CC[C@@]21C	> 50
CC(=O)O[C@H]1[C@@H](n2ccnn2)C[C@H]2[C@@H]3CC[C@H]4C[C@@H](N5CCOCC5)CC[C@]4(C)[C@H]3CC[C@@]21C	> 50
CC(=O)O[C@H]1[C@@H](n2ccnn2)C[C@H]2[C@@H]3CC[C@H]4C[C@@H](N5CCCC5)CC[C@]4(C)[C@H]3CC[C@@]21C	> 50
CC(=O)O[C@H]1[C@@H](n2ccnn2)C[C@H]2[C@@H]3CC[C@H]4C[C@@H](N(C)Cc5ccccc5)CC[C@]4(C)[C@H]3CC[C@@]21C	> 50
CC(=O)O[C@H]1[C@@H](n2ccnn2)C[C@H]2[C@@H]3CC[C@H]4C[C@@H](N5CCN(C)CC5)CC[C@]4(C)[C@H]3CC[C@@]21C	38.1
CCN(CC)[C@H]1CC[C@@]2(C)[C@@H](CC[C@@H]3[C@@H]2CC[C@@]2(C)[C@H]3C[C@H](n3cncn3)[C@@H]2OC(C)=O)C1	> 50
CC(=O)O[C@H]1[C@@H](n2cnc3ccccc32)C[C@H]2[C@@H]3CC[C@H]4C[C@@H](N5CCOCC5)CC[C@]4(C)[C@H]3CC[C@@]21C	> 50

system: SW480; experiment: Anticancer activity against human SW480 cells after 48 hrs by MTT assay; format: functional, cell-based; conditions: SW480, 48 h

Compound	IC50 [µM]
CC(=O)O[C@H]1[C@@H](n2cncn2)C[C@H]2[C@@H]3CC[C@H]4C[C@@H](N5CCCCC5)CC[C@]4(C)[C@H]3CC[C@@]21C	> 50
CCN(CC)[C@H]1CC[C@@]2(C)[C@@H](CC[C@@H]3[C@@H]2CC[C@@]2(C)[C@H]3C[C@H](n3ccnn3)[C@@H]2OC(C)=O)C1	> 50
COc1cccc2c1C(=O)c1c(O)c3c(c(O)c1C2=O)C[C@@](O)(C(=O)CO)C[C@@H]3O[C@H]1C[C@H](N)[C@H](O)[C@H](C)O1 [DOXORUBICIN]	0.06
CC(=O)O[C@H]1[C@@H](n2cnc3ccccc32)C[C@H]2[C@@H]3CC[C@H]4C[C@@H](N5CCCC5)CC[C@]4(C)[C@H]3CC[C@@]21C	> 50
CC(=O)O[C@H]1[C@@H](n2cnc3ccccc32)C[C@H]2[C@@H]3CC[C@H]4C[C@@H](N(C)c5ccccc5)CC[C@]4(C)[C@H]3CC[C@@]21C	9.22
CC(=O)O[C@H]1[C@@H](n2cncn2)C[C@H]2[C@@H]3CC[C@H]4C[C@@H](N(C)Cc5ccccc5)CC[C@]4(C)[C@H]3CC[C@@]21C	> 50
CC(=O)O[C@H]1[C@@H](n2cncn2)C[C@H]2[C@@H]3CC[C@H]4C[C@@H](N5CCCC5)CC[C@]4(C)[C@H]3CC[C@@]21C	> 50
CC(=O)O[C@H]1[C@@H](n2ccnn2)C[C@H]2[C@@H]3CC[C@H]4C[C@@H](N5CCOCC5)CC[C@]4(C)[C@H]3CC[C@@]21C	31.8
CC(=O)O[C@H]1[C@@H](n2ccnn2)C[C@H]2[C@@H]3CC[C@H]4C[C@@H](N5CCCC5)CC[C@]4(C)[C@H]3CC[C@@]21C	> 50
CC(=O)O[C@H]1[C@@H](n2ccnn2)C[C@H]2[C@@H]3CC[C@H]4C[C@@H](N(C)Cc5ccccc5)CC[C@]4(C)[C@H]3CC[C@@]21C	> 50
CC(=O)O[C@H]1[C@@H](n2ccnn2)C[C@H]2[C@@H]3CC[C@H]4C[C@@H](N5CCN(C)CC5)CC[C@]4(C)[C@H]3CC[C@@]21C	> 50
CCN(CC)[C@H]1CC[C@@]2(C)[C@@H](CC[C@@H]3[C@@H]2CC[C@@]2(C)[C@H]3C[C@H](n3cncn3)[C@@H]2OC(C)=O)C1	> 50
CC(=O)O[C@H]1[C@@H](n2cnc3ccccc32)C[C@H]2[C@@H]3CC[C@H]4C[C@@H](N5CCOCC5)CC[C@]4(C)[C@H]3CC[C@@]21C	> 50

system: A549; experiment: Anticancer activity against human A549 cells after 48 hrs by MTT assay; format: functional, cell-based; conditions: A549, 48 h

Compound	IC50 [µM]
CC(=O)O[C@H]1[C@@H](n2cncn2)C[C@H]2[C@@H]3CC[C@H]4C[C@@H](N5CCCCC5)CC[C@]4(C)[C@H]3CC[C@@]21C	> 50
CCN(CC)[C@H]1CC[C@@]2(C)[C@@H](CC[C@@H]3[C@@H]2CC[C@@]2(C)[C@H]3C[C@H](n3ccnn3)[C@@H]2OC(C)=O)C1	> 50
CC(=O)O[C@H]1[C@@H](n2cnc3ccccc32)C[C@H]2[C@@H]3CC[C@H]4C[C@@H](N5CCCC5)CC[C@]4(C)[C@H]3CC[C@@]21C	39.6
CC(=O)O[C@H]1[C@@H](n2cnc3ccccc32)C[C@H]2[C@@H]3CC[C@H]4C[C@@H](N(C)c5ccccc5)CC[C@]4(C)[C@H]3CC[C@@]21C	28.4
CC(=O)O[C@H]1[C@@H](n2cncn2)C[C@H]2[C@@H]3CC[C@H]4C[C@@H](N(C)Cc5ccccc5)CC[C@]4(C)[C@H]3CC[C@@]21C	> 50
CC(=O)O[C@H]1[C@@H](n2cncn2)C[C@H]2[C@@H]3CC[C@H]4C[C@@H](N5CCCC5)CC[C@]4(C)[C@H]3CC[C@@]21C	> 50
CC(=O)O[C@H]1[C@@H](n2ccnn2)C[C@H]2[C@@H]3CC[C@H]4C[C@@H](N5CCOCC5)CC[C@]4(C)[C@H]3CC[C@@]21C	40.3
CC(=O)O[C@H]1[C@@H](n2ccnn2)C[C@H]2[C@@H]3CC[C@H]4C[C@@H](N5CCCC5)CC[C@]4(C)[C@H]3CC[C@@]21C	> 50
CC(=O)O[C@H]1[C@@H](n2ccnn2)C[C@H]2[C@@H]3CC[C@H]4C[C@@H](N(C)Cc5ccccc5)CC[C@]4(C)[C@H]3CC[C@@]21C	11.4
CC(=O)O[C@H]1[C@@H](n2ccnn2)C[C@H]2[C@@H]3CC[C@H]4C[C@@H](N5CCN(C)CC5)CC[C@]4(C)[C@H]3CC[C@@]21C	> 50
CCN(CC)[C@H]1CC[C@@]2(C)[C@@H](CC[C@@H]3[C@@H]2CC[C@@]2(C)[C@H]3C[C@H](n3cncn3)[C@@H]2OC(C)=O)C1	> 50
CC(=O)O[C@H]1[C@@H](n2cnc3ccccc32)C[C@H]2[C@@H]3CC[C@H]4C[C@@H](N5CCOCC5)CC[C@]4(C)[C@H]3CC[C@@]21C	16.1

system: HepG2; experiment: Anticancer activity against human HepG2 cells after 48 hrs by MTT assay; format: functional, cell-based; conditions: HepG2, 48 h

Compound	IC50 [µM]
CC(=O)O[C@H]1[C@@H](n2cncn2)C[C@H]2[C@@H]3CC[C@H]4C[C@@H](N5CCCCC5)CC[C@]4(C)[C@H]3CC[C@@]21C	> 50
CCN(CC)[C@H]1CC[C@@]2(C)[C@@H](CC[C@@H]3[C@@H]2CC[C@@]2(C)[C@H]3C[C@H](n3ccnn3)[C@@H]2OC(C)=O)C1	> 50
CC(=O)O[C@H]1[C@@H](n2cnc3ccccc32)C[C@H]2[C@@H]3CC[C@H]4C[C@@H](N5CCCC5)CC[C@]4(C)[C@H]3CC[C@@]21C	> 50
CC(=O)O[C@H]1[C@@H](n2cnc3ccccc32)C[C@H]2[C@@H]3CC[C@H]4C[C@@H](N(C)c5ccccc5)CC[C@]4(C)[C@H]3CC[C@@]21C	> 50
CC(=O)O[C@H]1[C@@H](n2cncn2)C[C@H]2[C@@H]3CC[C@H]4C[C@@H](N(C)Cc5ccccc5)CC[C@]4(C)[C@H]3CC[C@@]21C	10.6
CC(=O)O[C@H]1[C@@H](n2cncn2)C[C@H]2[C@@H]3CC[C@H]4C[C@@H](N5CCCC5)CC[C@]4(C)[C@H]3CC[C@@]21C	> 50
CC(=O)O[C@H]1[C@@H](n2ccnn2)C[C@H]2[C@@H]3CC[C@H]4C[C@@H](N5CCOCC5)CC[C@]4(C)[C@H]3CC[C@@]21C	> 50
CC(=O)O[C@H]1[C@@H](n2ccnn2)C[C@H]2[C@@H]3CC[C@H]4C[C@@H](N5CCCC5)CC[C@]4(C)[C@H]3CC[C@@]21C	> 50
CC(=O)O[C@H]1[C@@H](n2ccnn2)C[C@H]2[C@@H]3CC[C@H]4C[C@@H](N(C)Cc5ccccc5)CC[C@]4(C)[C@H]3CC[C@@]21C	8.43
CC(=O)O[C@H]1[C@@H](n2ccnn2)C[C@H]2[C@@H]3CC[C@H]4C[C@@H](N5CCN(C)CC5)CC[C@]4(C)[C@H]3CC[C@@]21C	> 50
CCN(CC)[C@H]1CC[C@@]2(C)[C@@H](CC[C@@H]3[C@@H]2CC[C@@]2(C)[C@H]3C[C@H](n3cncn3)[C@@H]2OC(C)=O)C1	> 50
CC(=O)O[C@H]1[C@@H](n2cnc3ccccc32)C[C@H]2[C@@H]3CC[C@H]4C[C@@H](N5CCOCC5)CC[C@]4(C)[C@H]3CC[C@@]21C	> 50

system: SiHa; experiment: Anticancer activity against human SiHa cells after 48 hrs by MTT assay; format: functional, cell-based; conditions: not given

Compound	IC50 [µM]
CC(=O)O[C@H]1[C@@H](n2cncn2)C[C@H]2[C@@H]3CC[C@H]4C[C@@H](N5CCCCC5)CC[C@]4(C)[C@H]3CC[C@@]21C	> 50
CCN(CC)[C@H]1CC[C@@]2(C)[C@@H](CC[C@@H]3[C@@H]2CC[C@@]2(C)[C@H]3C[C@H](n3ccnn3)[C@@H]2OC(C)=O)C1	> 50
COc1cccc2c1C(=O)c1c(O)c3c(c(O)c1C2=O)C[C@@](O)(C(=O)CO)C[C@@H]3O[C@H]1C[C@H](N)[C@H](O)[C@H](C)O1 [DOXORUBICIN]	0.45
CC(=O)O[C@H]1[C@@H](n2cnc3ccccc32)C[C@H]2[C@@H]3CC[C@H]4C[C@@H](N5CCCC5)CC[C@]4(C)[C@H]3CC[C@@]21C	37.1
CC(=O)O[C@H]1[C@@H](n2cnc3ccccc32)C[C@H]2[C@@H]3CC[C@H]4C[C@@H](N(C)c5ccccc5)CC[C@]4(C)[C@H]3CC[C@@]21C	6.67
CC(=O)O[C@H]1[C@@H](n2cncn2)C[C@H]2[C@@H]3CC[C@H]4C[C@@H](N(C)Cc5ccccc5)CC[C@]4(C)[C@H]3CC[C@@]21C	22.4
CC(=O)O[C@H]1[C@@H](n2cncn2)C[C@H]2[C@@H]3CC[C@H]4C[C@@H](N5CCCC5)CC[C@]4(C)[C@H]3CC[C@@]21C	> 50
CC(=O)O[C@H]1[C@@H](n2ccnn2)C[C@H]2[C@@H]3CC[C@H]4C[C@@H](N5CCOCC5)CC[C@]4(C)[C@H]3CC[C@@]21C	47.8
CC(=O)O[C@H]1[C@@H](n2ccnn2)C[C@H]2[C@@H]3CC[C@H]4C[C@@H](N5CCCC5)CC[C@]4(C)[C@H]3CC[C@@]21C	> 50
CC(=O)O[C@H]1[C@@H](n2ccnn2)C[C@H]2[C@@H]3CC[C@H]4C[C@@H](N(C)Cc5ccccc5)CC[C@]4(C)[C@H]3CC[C@@]21C	15.2
CC(=O)O[C@H]1[C@@H](n2ccnn2)C[C@H]2[C@@H]3CC[C@H]4C[C@@H](N5CCN(C)CC5)CC[C@]4(C)[C@H]3CC[C@@]21C	> 50
CCN(CC)[C@H]1CC[C@@]2(C)[C@@H](CC[C@@H]3[C@@H]2CC[C@@]2(C)[C@H]3C[C@H](n3cncn3)[C@@H]2OC(C)=O)C1	> 50
CC(=O)O[C@H]1[C@@H](n2cnc3ccccc32)C[C@H]2[C@@H]3CC[C@H]4C[C@@H](N5CCOCC5)CC[C@]4(C)[C@H]3CC[C@@]21C	12.3

system: HEK293; experiment: Cytotoxicity against human HEK293 cells after 48 hrs by MTT assay; format: cell-based; conditions: HEK293, 48 h

Compound	IC50 [µM]
CC(=O)O[C@H]1[C@@H](n2cnc3ccccc32)C[C@H]2[C@@H]3CC[C@H]4C[C@@H](N(C)c5ccccc5)CC[C@]4(C)[C@H]3CC[C@@]21C	> 80
